Measured values from the NIST ThermoML archive (doi:10.1016/j.fluid.2012.03.005).

Settings: for surface tension liquid-gas: Pendant drop shape; for mass density: 101.33 kPa, Liquid, Vibrating tube method

CCCCCCCCCCCCCC[P+](CCCCCC)(CCCCCC)CCCCCC.[Br-] [tetradecyltrihexylphosphonium bromide]
Settings	mass density [kg/m3]	surface tension liquid-gas [mN/m]
293.15 K	961.7	29.97
297.15 K	959.2	–
298.15 K	958.6	29.32
301.15 K	956.7	–
303.15 K	955.5	28.94
305.15 K	954.3	–
308.15 K	952.4	28.53
309.15 K	951.8	–
313.15 K	949.3	28.15
317.15 K	946.9	–
318.15 K	946.2	27.81
321.15 K	944.4	–
323.15 K	943.1	27.46
325.15 K	941.9	–
328.15 K	940.1	27.12
329.15 K	939.4	–
333.15 K	937	26.78
337.15 K	934.6	–
338.15 K	934	26.57
341.15 K	932.1	–
343.15 K	930.9	26.24
345.15 K	929.7	–
